Results: patent EP0542807B1, “USE OF 2-PHENYL-1,2-BENZISOSELENAZOL-3(2H)-ONE” (RHONE-POULENC RORER GMBH, priority 1990, dated 1992)

Legend:
[1] = Histology of kidneys and retroperitoneal ganglionic tissue; assay type: in vivo, BALB/c mice; details: cisplatin alone versus cisplatin and ebselen given 1 h before
Method: Histology. Mice were sacrificed four days after treatment with cisplatin alone or Ebselen and cisplatin. Control groups were treated with Ebselen alone or the vehicle. Kidneys and livers were removed and processed for light microscopy. Sections of 6 um thickness were cut and stained in hematoxylin : eosin. All slides were examined without prior knowledge of the treatment given to the animal from which the specimen under investigation was taken.

[2] = system: LLC-PK1 cells; assay: In-vitro toxicity of cisplatin in LLC-PK1 cells (LDH-leakage, protein remaining attached to the culture plate); assay type: cell-based, porcine
Method: LLC-PK1 are porcine kidney cells which express many characteristics of proximal tubule epithelium. […] In this cell line the LDH-leakage can be used as criterium for cell toxicity.
Cells were seeded in 24 well culture dishes ([…]) and allowed to grow to confluence (2.4 x 10^5 cell/cm^2) over 8 days in serum containing 5 % fetal calf serum. The cells were then maintained in serum-free medium for 2 days before drug treatment. Only monolayers in which dome formation occurred were used for the experiments.
Ebselen was dissolved in 2% dimethylsulfoxide in the sterile salt solution.
After incubation, the monolayers were washed 3 times with physiological saline to remove residual drug. Subsequently, the cells were grown in medium containing 5% fetal calf serum. Cell viability was assessed at different timepoints. In control experiments, monolayers were exposed to the vehicle in stead of drugs.
In control experiments, ebselen was replaced by the vehicle.

[3] = system: Prima breast tumor cells; assay: Nephrotoxicity and antitumor activity in mice inoculated with Prima breast tumor cells; assay type: in vivo, BALB/c mice; details: for T/C Day 15: T/C = mean tumor weight treated/control mice; for Incidence of tumors Day 8: by palpation
Source text: (§1) Tumors. MPC 11 tumor cells were obtained from the institute of Pathology, University of Utrecht, The Netherlands. The MPC 11 tumor originated as a plasmacytoma, and was originally obtained from Dr. D. Catty, Birmingham, United Kingdom. The tumor cells were maintained by weekly passages in BALB/c mice. Freshly harvested ascitic cells were used in the experiments. Cells were counted with a hemocytometer. Transplantable Prima mammary tumor cells were obtained from the Radiobiological Institute TNO, Rijswijk, The Netherlands. The Prima tumor originated as a mammary carcinoma, induced by forced breeding in BALB/c mice bearing murine mammary tumor virus. The Prima tumor cell-line was cultured in vitro in standard Dulbecco's modification of Minimal Essential Medium (Gibco, Paisley, United Kingdom), supplemented with L-glutamine (500 mg/l), 2-mercapto-ethanol (60 umol/l) and 10% fetal calf serum (Flow Laboratories, Zwanenburg, The Netherlands).
(§2) Laboratory Animals. Female BALB/c mice were obtained from the Central Institute for the Breeding of Laboratory Animals/Harlan Sprague-Dawley (CPB/HSD), Zeist, The Netherlands. The mice were 8 weeks of age and weighed 18-20 g at the start of the experiments. All animals were provided with standard laboratory food (SRMA chow, Hope Farms, Woerden, The Netherlands) and water ad libitum.
(§3) Treatment. Animals were divided at random into groups of 8. […] Ebselen was dissolved in f a mixture of dimethylsulfoxide/polyethyleneglycol/physiological saline (1/4/20) and administered i.p. in a volume of 0.6 ml.
Control groups were treated with ebselen or the vehicle. The occurrance of tumors was examined daily by palpation. The experiments were terminated on Day 15 when the tumors were excised and weighed.
(§4) Statistics. Student's test, unpaired, was used to evaluate the significance of differences between experimental groups. The level of significance was set at P < 0.05.

[4] = system: MPC 11 tumor cells; assay: Nephrotoxicity and antitumor activity in mice inoculated with MPC 11 tumor cells; assay type: in vivo, BALB/c mice; details: for T/C: T/C=MST treated/ MST control
Source text: as §1, §2, §3
Evaluation of Antitumor Activity. […] Control groups were treated with ebselen or the vehicle. Mice were examined daily for occurrence of tumors. The experiments were terminated on Day 42 and median survival times (MSTs) were calculated.
as §4

[5] = set-up: species or system BALB/c mice; details: mouse, in vivo
Method: Kidney Function. […] Blood samples were obtained from the retroorbital venous plexus in the mice. Serum creatinine and BUN were measured daily in pilot studies (data not shown) and in more extensive studies at the time of maximally observed toxicity : Day 4.
Liver Function. […] Control groups were treated with ebselen or the vehicle.

[6] = Cisplatin-induced nephrotoxicity in mice (kidney function: BUN, serum creatinine); assay type: in vivo, BALB/c mice; details: for Effect on cisplatin-induced increase of BUN and serum creatinine: Day 4
Method: as §2, §3
Kidney Function. […] Blood samples were obtained from the retroorbital venous plexus in the mice.
as §4

[7] = Acute toxicity (LD0) in mice; assay type: in vivo; details: acute investigations
Method: (§5) Since, in contrast to the previously known and applied selenium compounds, Ebselen is low in toxicity (LD0 > 1000 mg/kg body weight in acute investigations in mice and rats) and the maximum doses to be administered lie greatly below this value, administration to patients can be regarded as being without danger.

[8] = Acute toxicity (LD0) in rats; assay type: in vivo; details: acute investigations
Method: as §5

[9] = Cisplatin 11.5 mg/kg alone, n=8

## N.N.[Cl][Pt][Cl] [Cisplatin]
[1]
  Damage to retroperitoneal ganglionic cells: more pronounced
[2]; cisplatin 0.4 mM for 1 h, time after termination of the incubation
  Time at which decrease in cell viability was first observed: 24 h
[3]; Cisplatin 6.5 mg/kg alone
  T/C Day 15: 93%
  Incidence of tumors Day 8: 100%
[3]; Cisplatin 6.5 mg/kg alone, n=8
  Mean tumor weight Day 15: 1.4 ± 0.2 g
[3]; Cisplatin 9.0 mg/kg alone
  T/C Day 15: 47%
  Incidence of tumors Day 8: 0%
[3]; Cisplatin 9.0 mg/kg alone, n=8
  Mean tumor weight Day 15: 0.7 ± 0.4 g
[3]; Cisplatin 11.5 mg/kg alone
  T/C Day 15: 28%
  Incidence of tumors Day 8: 0%
[3]; [9]
  Mean tumor weight Day 15: 0.42 ± 0.08 g
[3]; Cisplatin 14.5 mg/kg alone
  T/C Day 15: 7%
  Incidence of tumors Day 8: 0%
[3]; cisplatin 9.0 and 11.5 mg/kg
  Efficacy against the Prima mammary tumor: effective
[3]; cisplatin […] alone, n=8
  Mice with tumors as assessed by palpation on Day 7: None
[4]; Cisplatin 4.0 mg/kg alone
  T/C: 150%
[4]; Cisplatin 4.0 mg/kg alone, n=8
  Incidence of tumors Day 7: 100%
  MST: 24 ± 4 days
[4]; Cisplatin 6.5 mg/kg alone
  T/C: 181%
[4]; Cisplatin 6.5 mg/kg alone, n=8
  Incidence of tumors Day 7: 100%
  MST: 29 ± 4 days
[4]; Cisplatin 9.0 mg/kg alone
  T/C: >300%
[4]; Cisplatin 9.0 mg/kg alone, n=8
  Incidence of tumors Day 7: 0%
  MST: >30 days
[4]; Cisplatin 11.5 mg/kg alone
  T/C: >300%
[4]; [9]
  Incidence of tumors Day 7: 0%
  MST: >48 days
[4]; Cisplatin 14.5 mg/kg alone, n=8
  Incidence of tumors Day 7: 0%

## O=c1c2ccccc2[se]n1-c1ccccc1 [Ebselen, 2-phenyl-1,2-benzisoselenazol-3(2H)-one]
[5]
  Functional liver- or kidney-damage: did not cause functional liver- or kidney-damage
[6]; Ebselen 1 h before cisplatin 11.5 to 19.0 mg/kg
  Effect on cisplatin-induced increase of BUN and serum creatinine: prevented the increase in levels of BUN and serum creatinine at all cisplatin doses tested with exception of the highest dose
[6]; cisplatin 14.5 mg/kg, ebselen i.p. 1 h before
  Ebselen dose of maximal protection against cisplatin-induced nephrotoxicity: 10.0 mg/kg
[6]; ebselen 1 h after cisplatin
  Effect on cisplatin-induced increase of BUN and serum creatinine: a protective effect against cisplatin-induced elevations of the levels of BUN and serum creatinine was also observed, but less marked
[2]; 10 uM Ebselen 1 h, then 0.4 mM cisplatin 1 h, whole period up till 72 h
  Cell viability versus cells not pre-exposed (time course): significantly higher
[2]; pre-incubation 1 h before cisplatin, concentration-dependent
  Ebselen concentration of highest protection: 15 µM
[2]; pre-incubation with Ebselen 5-15 uM for 1 h, then 0.2 or 0.4 mM cisplatin 1 h, t = 72 h
  Protection from cisplatin-induced decrease in viability: protected the cells from a decrease in viability
[2]; pre-incubation with ebselen, cisplatin 0.8 mM for 1 h
  Protection from cisplatin-induced decrease in viability: could not protect the cells against the decrease in viability
[7]
  LD0: > 1000 mg/kg body weight
[3]; Ebselen 10 mg/kg 1 h before cisplatin
  Influence on the antitumor activity of cisplatin: did not reduce the antitumor activity of cisplatin
[3]; Ebselen 10 mg/kg alone
  Efficacy against the Prima tumor: not effective
[3]; Ebselen 10.0 mg/kg alone
  T/C Day 15: 100%
  Incidence of tumors Day 8: 100%
[3]; Ebselen 10.0 mg/kg alone, n=8
  Mean tumor weight Day 15: 1.5 ± 0.4 g
  Survival Day 8: 100%
[4]; Ebselen 10.0 mg/kg alone
  T/C: 106%
[4]; Ebselen 10.0 mg/kg alone, n=8
  Incidence of tumors Day 7: 100%
  MST: 17 ± 2 days
  Survival Day 7: 100%
[4]; MPC 11 plasmacytoma, ebselen i.p. 1 h prior to cisplatin
  Influence on the antitumor activity of cisplatin: did not reduce the antitumor activity of cisplatin
[4]; ebselen alone
  MST versus vehicle control: identical to that of the control group
[8]
  LD0: > 1000 mg/kg body weight
